Results taken from US12089542B2, “Subsurface drip irrigation (SDI) lines enhanced with essential oils” (Metzerplas Cooperative Agricultural Organization Ltd., priority 2020, dated 2024).

Experiments:
mash bean seeds [1] = assay: Combination of active ingredients: mash bean root development in open jars with ARC2 films; format: in vivo; conditions: 7% in ARC2 film
Procedure: In order to evaluate the efficacy of Thymol relative to another EO, and to see if combination could result in synergistic activity, an additional experiment was conducted using ARC2 polymer (Cloisite 15A 10 wt % nanoclay) with mash bean seeds in open jars. Cotton wool was placed in the jar as a substrate in the center of which the seeds were sown. Three types of EOs were incorporated into the ARC2 polymer films (7% Thymol, 7% pelargonic acid, and 3.5% Thymol/3.5% pelargonic acid) with a dimension of 1 cm width, 3 cm length, and 3 mm thickness were tested and compared to a reference sample (without EO). Each film was placed adjacent to the jar wall. Seeds were watered once a day for 14 weeks.

root growth = assay: Cumulative data from examples 1 through 4: Thymol concentration and root growth; format: in vivo; conditions: low concentrations; at higher concentrations anti-root activity
Sorghum = assay: Greenhouse experiment using Sorghum and 5% Thymol, root clogging of SDI drippers; format: in vivo; conditions: for % Clogged drippers / Clogged drippers / Clean drippers: 2.5 months greenhouse; for roots accumulated on top of the pipe in the area of the drippers' holes: FIG. 7; for Clogged drippers / Clean drippers: number of drippers; for Clogged drippers: ARC1 film in pipe or Treflan pipe
Procedure: In order to confirm the results of Example 1 in a more agricultural settind and in a different pant variety, Sorghum seeds were grown in a TROPICO-type greenhouse (TOP Company), at Kibbutz Metzer (Israel) during the summer season, for 2.5 months.
Individual PP (polypropylene) cases were built for seed beds, with the dimensions of 40 cm height, 20 cm width, and 5 meters length. ARC1-based active films were inserted into PE SDI pipes as in Example 1, and activity of thymol as a root inhibitor was compared to that of TREFLAN chemical herbicide (positive control), as well as to herbicide free pipe used as a negative control.
The pipes were placed 15 cm above the bed's bottom, mimicking a buried drip irrigation situation at a realistic ‘field depth’ for the SDI system. Holes were drilled at the bed's edges to allow easy access to the initial and the last pipe and to enable simple irrigation and fertilization control.
The seed beds were filled with ‘Ram 8’-type (Tuff Merom Golan), a professional planting substrate, 80% coarse peat/20% coconut composition.
“Bulldozer”-type sorghum seeds, supplied by CTS Company, were sown. Sorghum is categorized as a classical field-growth plant and characterized by a robust and aggressive root system with secondary growth ability after ‘green’ harvesting without inflorescence.
The sowing process corresponded to field sowing. Eight seeds per meter were sown at 2.5 cm deep, with 12.5 cm sowing intervals.
Irrigation regime was determined differentially, taking into consideration climate data and irrigation type. During the first week from sowing, the irrigation carried out using sprinklers without fertilization. After sprouting and germination, the irrigation was performed through underground drip irrigation only, accompanied by proportional fertilization, “fertilizer-all”-type 17-10-27, with trace elements. The level of fertilizer in irrigation water was about 30 ppm nitrogen. In contrast to example 1, irrigation and fertilization regimes performed were minimal to create ‘starvation’ and cause the roots to aggressively migrate towards the drippers' holes in search of water and fertilizer.

cucumber seeds = assay: Bioassay of Thymol activity on plant health and development, cucumber; format: in vivo
Procedure: (§1) In order to determine the suitability of Thymol as an anti-root (AR) agent in a variety of agricultural settings, Thymol activity was tested on different seed types.
(§2) The experiment was conducted for two months during the spring with an ambient temperature of ±30° C. Plastic boxes of 30 cm length, 20 cm width, and 15 cm height were filled with German Kalsmann peat, coconut fiber, ventilation materials, and slow-release fertilizers as planting substrate.
(§3) Cucumber, tomato, beetroot, and sweet corn seeds were each sown in two boxes (8 boxes in total); one box of each seed type was used as a negative control and in the other box (experimental) an ARC2-based active film (Cloisite 15A 10 wt % nanoclay; 7% Thymol) was placed adjacent to the box wall to assess Thymol activity [FIG. 12]. The film folded in half, corresponding to the length and width dimensions of the box.
(§4) For each seed type, both boxes were placed outdoors according to the sun intensity the plant requires. Each seed type was given an appropriate amount of water evenly, using a can.

[2] = Quantitative analysis of Thymol concentration remaining in the film (extraction, Gibbs reagent, UV-visible); format: physicochemical
Procedure: The amount of Thymol remaining in the films immediately after processing and at the end of each experiment was determined by UV-visible 1650PC spectrophotometer (Shimadzu), through extraction. The procedure is suitable for different phenolic EOs and is based on Gibbs reagent (2,6-dichlorobenzoquinone 4-chloroimine).
Briefly, different Thymol-active films were cut to small pieces, weighed, and extracted by refluxing with 2-propanol at a ratio of 500 mg film/25 ml propanol, for 2 hours. To 100 ml volumetric flasks containing 10 ml of a standard Buffer solution of Boric Acid+Potassium Chloride, 1 ml of the extraction solution, 4 mL of 2-propanol, and 1 ml of Gibbs reagent solution was added. The solution was allowed to stand for 15 min to enable the reaction to occur fully. The resulting violet water-soluble dye has a maximum absorption at 590 nm wavelength. Thymol concentration retained in the film, as a proportion of the nominal concentration, was calculated from a calibration curve. Two replicates were measured for each standard.

tomato seeds = assay: Bioassay of Thymol activity on plant health and development, tomato; format: in vivo; conditions: ARC2 film (7% Thymol) adjacent to box wall
Procedure: as §1, §2, §3, §4

helianthus seeds = assay: Helianthus seeds in planters with 7% Thymol (ARC2 film in pipe); format: in vivo
Procedure: In order to evaluate the effect of increasing the amount of Thymol, an additional experiment was conducted using ARC2 polymer (Cloisite 15A 10 wt % nanoclay; 7% Thymol). The experiment was conducted on helianthus seeds during the summer season, temperature above 30° C., for two months.
Planter dimensions were 110 cm length, 10 cm width, and 15 cm height. The pipes were placed 5 cm from the planter base, where holes were drilled for drainage.
One planter contained negative control pipe, while ARC2-based active film (experimental) was inserted to pipe in experimental planters as in examples 1 and 2.
Potting soil for plant growth was a mixture of German Kalsmann peat, coconut fiber, ventilation materials, and slow-release fertilizers, mixed with Perlite.
Thirty seeds were sown in two columns at 1 cm depth and 7 cm intervals.
Irrigation cycle was set twice daily for three minutes.
As in previous examples, the number of seeds sown relative to the planter size was large and irrigation regime was minimal to increase the root-intrusion tendency.

mash bean seeds [3] = assay: Inhibition of root penetration in subsurface pipes by Thymol-active based film (5%), lab planters; format: in vivo
Source text: Holes were drilled at the bottom for water drainage. PE pipe was specially manufactured by METZERPLAS (Israel), with a coating that prevents diffusion of materials through the PE matrix. Pipe diameter 16 mm with a wall thickness of 0.9 mm. A VARDIT 16-type adjusted dripper was selected, with a flow rate of 1.2 liters/hour for each dripper spaced 20 cm apart across the pipes, which were placed 5 cm from the planter base. An ARC1-based active film (Cloisite 15 3% wt and Thymol 5%) was inserted to one pipe [FIG. 2] and its activity was compared with another pipe with no active agent, used as a negative control.
The planting substrate was Perlite mixed with Hydroton, and mash bean seeds were sown after surface-sterilization with 10% […], for 20 min, to avoid possible inhibition caused by toxins from fungi or bacteria. Seeds were then rinsed with an abundance of distilled water 20 g of seeds were sown 7 cm deep in each flowerbox.
A high ratio of seeds:volume was intentionally used to increase the chance of root intrusion.
Irrigation regimen was set at four times a day for ten minutes. The experiment was conducted in a lab, with light supplied 24 hours a day, and room temperature±25° C. After twenty days, the drippers were opened to examine whether the Thymol was able to function as an anti-root (AR) agent and protect the SDI pipe from root intrusion.

sweet corn seeds = assay: Bioassay of Thymol activity on plant health and development, sweet corn; format: in vivo; conditions: ARC2 film (7% Thymol) adjacent to box wall
Procedure: as §1, §2, §3, §4

beetroot seeds = assay: Bioassay of Thymol activity on plant health and development, beetroot; format: in vivo; conditions: ARC2 film (7% Thymol) adjacent to box wall
Procedure: as §1, §2, §3, §4

[4] = beds opened at end of experiment

For `CCCCCCCCC(=O)O` [Pelargonic acid], the “effect on root growth” value (mash bean seeds [1]; after two weeks, FIG. 18) was “inhibitory effect on root growth compared to the reference sample, but the effect was less”.

For `Cc1ccc(C(C)C)c(O)c1` [Thymol], the “concentration at which Thymol can stimulate root growth” value (root growth) was less than 0.4 wt %, the “% Clogged drippers” value (Sorghum; listed as Thymol 1) was 0% and the “% Clogged drippers” value (Sorghum; listed as Thymol 2) was 4.76%. The “roots accumulated on top of the pipe in the area of the drippers' holes” value (Sorghum; [4]) was “lower than that obtained for the negative control”, the “effect on roots development / harm to the crop under cultivation” value (Sorghum; in vivo) was “less harmful to the crop under cultivation than Treflan” and the “efficacy in deterring roots from dripper openings relative to Treflan” value (Sorghum; in vivo) was “roughly as effective as Treflan”. For the same compound, the Clogged drippers (Sorghum) was “one”, the Clogged drippers (Sorghum; listed as Thymol 1) was 0 and the Clogged drippers (Sorghum; listed as Thymol 2) was 1. The Clean drippers (Sorghum; listed as Thymol 1) was 15, the Clean drippers (Sorghum; listed as Thymol 2) was 20 and the “germination rate compared with control box” value (cucumber seeds; ARC2 film (7% Thymol) adjacent to box wall) was “faster”. For the same compound, the “number of germinated seeds compared with control box” value (cucumber seeds; FIG. 13) was “greater”, the “seedlings' growth rate compared with control box” value (cucumber seeds; FIG. 13, after 43 days) was “continued to be faster” and the “time until 6 seeds germinated” value (cucumber seeds; FIG. 13, control box 17 days) was 11 days. For the same compound, the “amount of Thymol remaining in the film” value ([2]; after 2 months in soil, film in pipe, welded outside or at a distance) was “around 5 % of the amount nominally incorporated in the film prior to processing”, the “Thymol concentration in the film below which inhibitory activity decreases” value ([2]; initial concentration at the beginning of the manufacturing process) was “about 9 % of the initial concentration” and the “Thymol concentration remaining in the film, sorghum experiment versus mash bean experiment” value ([2]; two and a half months (sorghum) vs two months (mash bean)) was “slightly higher”. For the same compound, the “germination rate compared with control box” value (tomato seeds) was “faster”, the “germination rate compared with negative control planter” value (helianthus seeds; ARC2 film (Cloisite 15A 10 wt %, 7% Thymol) in pipe) was “faster” and the “number of helianthus flowers” value (helianthus seeds; after 55 days, control planter 19) was 24. The “drippers penetrated by roots” value (helianthus seeds; out of five drippers, end of experiment (two months), control three out of five) was “two”, the “seedling growth rate compared with control planter” value (helianthus seeds; until plants reached maximum height) was “remained faster” and the “root penetration of drippers” value (mash bean seeds [3]; drippers opened after twenty days, ARC1 film, Thymol 5%, in pipe) was “remained free of roots”. For the same compound, the “number of germinated seeds compared with reference planter” value (mash bean seeds [3]; first four days, ARC1-based active film (Cloisite 15 3% wt, Thymol 5%) inserted in pipe) was “greater”, the “growth rate of roots and seedlings compared with reference planter” value (mash bean seeds [3]; up to two weeks, ARC1 film, Thymol 5%, in pipe) was “faster” and the root inhibitory effect (mash bean seeds [1]; after 3 weeks, FIG. 19) was “best root inhibitory effect”. For the same compound, the “germination rate compared with control box” value (sweet corn seeds) was “faster” and the “germination rate compared with control box” value (beetroot seeds) was “faster”.

With `CCCN(CCC)c1c([N+](=O)[O-])cc(C(F)(F)F)cc1[N+](=O)[O-]` [Treflan, trifluralin, reference compound] the “% Clogged drippers” value (Sorghum) was 0%, the “soil moisture in proximity to drippers” value (Sorghum; beds opened at end of experiment, FIG. 6, compared with negative control) was “higher degree of moisture” and the “roots accumulated on top of the pipe in the area of the drippers' holes” value (Sorghum; [4]) was “no root concentration areas are observed”. The “root state of drippers” value (Sorghum; end of experiment) was “root-clean”, the Clean drippers (Sorghum) was 20 and the Clogged drippers (Sorghum) was 0. For the same compound, the “effect on roots development / harm to the crop under cultivation” value (Sorghum; subjective evidence) was “more aggressive and detrimental effect on roots development”.
